Values after ≈ are worked out from the molar mass of the structure shown. Like-named read-outs stand apart in the source and are kept apart here. Where a SMILES comes first, the peptide text is derived from it. The star is where a group is joined. Deoxycholoyl = C[C@H](CCC(=O)*)[C@H]1CC[C@H]2[C@@H]3CC[C@@H]4C[C@H](O)CC[C@]4(C)[C@H]3C[C@H](O)[C@]12C; Benzoyl(4-Ph) = O=C(c1ccc(-c2ccccc2)cc1)*; Butanoyl(4-Ph) = O=C(CCCc1ccccc1)*; X2 = O=C(C#Cc1ccccc1)*
Assays:
[1] = system: human red blood cells (hRBCs); experiment: Hemolysis assay; details: 4% (v/v) erythrocytes in PBS, peptides 1–512 µg/mL, 1 h at 37 °C, hemoglobin at 540 nm
S. aureus ATCC 25923 = assay type: cell-based, Staphylococcus aureus; details: ATCC 25923, 18 h
Description: (§1) Tests of the antibacterial activity were carried out as we just described. Briefly, for assays, the following strains of ESKAPE bacteria were chosen: Acinetobacter baumannii ATCC BAA-1605, Enterococcus faecium ATCC 700221, Klebsiella aerogenes ATCC 13048 (formerly Enterobacter aerogenes), Klebsiella pneumoniae ATCC 700603, and Pseudomonas aeruginosa ATCC 9027. Moreover, the reference strains of Staphylococcus aureus were used: S. aureus ATCC 25923, S. aureus ATCC 6538, S. aureus ATCC 33591 (MRSA), S. aureus ATCC 9144, and S. aureus ATCC 12598. Before experiments, all the strains were stored at −80 °C in Roti®-Store cryo vials (Carl Roth GmbH, Karlsruhe, Germany). To evaluate the activity of the compounds, bacteria were transferred into fresh Mueller–Hinton medium (Becton Dickinson, Warszawa, Poland) and incubated for 24 h at 37 °C. In the next step, bacterial inoculums were seeded on Mueller–Hinton agar plates (BioMaxima SA, Lublin, Poland) and incubated again for 24 h. The MIC values were determined using the broth microdilution method according to the Clinical and Laboratory Standards Institute Protocol. The initial inoculums of bacteria (0.5 × 10^5 colony forming units (CFU)/mL) prepared in Mueller–Hinton broth were exposed to the ranging concentrations of peptides (1–512 µg/mL). The experiments were conducted on 96-well microtiter plates, with a final volume of 100 µL. The inoculum densities were checked spectrophotometrically (Multiskan™ GO Microplate Spectrophotometer, Thermo Scientific, Waltham, MA, USA) at 600 nm. The results were read after incubation for 18 h at 37 °C. The MIC values were the lowest concentration at which a visible growth of microorganisms was inhibited. All experiments were conducted in triplicate. Moreover, positive (growth) and negative (sterility) controls were included.

S. aureus ATCC 6538 = assay type: cell-based, Staphylococcus aureus; details: ATCC 6538, 18 h
Description: as §1

S. aureus ATCC 12598 = assay type: cell-based, Staphylococcus aureus; details: ATCC 12598, 18 h
Description: as §1

S. aureus ATCC 9144 = assay type: cell-based, Staphylococcus aureus; details: ATCC 9144, 18 h
Description: as §1

[2] = system: S. aureus ATCC 33591 (MRSA); assay type: cell-based, Staphylococcus aureus; details: ATCC 33591, 18 h
Description: as §1

[3] = system: Enterococcus faecium ATCC 700221; assay type: cell-based; details: ATCC 700221, 18 h
Description: as §1

[4] = system: Pseudomonas aeruginosa ATCC 9027; assay type: cell-based; details: ATCC 9027, 18 h
Description: as §1

[5] = system: Klebsiella aerogenes ATCC 13048; assay type: cell-based; details: ATCC 13048, 18 h
Description: as §1

[6] = system: Klebsiella pneumoniae ATCC 700603; assay type: cell-based; details: ATCC 700603, 18 h
Description: as §1

[7] = fresh batch of blood (footnote a)
[8] = 100% = 1% Triton-X 100, ≥ means less than 5% hemolysis up to 512 µg/mL

Row | SMILES | MHC5 (minimum hemolytic concentration causing 5% hemolysis of hRBCs) [1, 7] | MIC A. baumannii (18 h) [µg/mL] | MIC S. aureus 25923 (S. aureus ATCC 25923) [µg/mL] | MIC S. aureus 6538 (S. aureus ATCC 6538) [µg/mL] | MIC S. aureus 12598 (S. aureus ATCC 12598) [µg/mL] | MIC S. aureus 9144 (S. aureus ATCC 9144) [µg/mL] | MIC S. aureus 33591 [2] [µg/mL] | MIC E. faecium [3] [µg/mL] | MIC P. aeruginosa [4] [µg/mL] | MIC K. aerogenes [5] [µg/mL] | MIC K. pneumoniae [6] [µg/mL] | MHC5 (minimum hemolytic concentration causing 5% hemolysis of hRBCs) [1, 8] [µg/mL] | MIC A. baumannii (Mueller–Hinton broth, 0.5 × 10^5 CFU/mL, peptides 1–512 µg/mL, 18 h at 37 °C, triplicate) [µg/mL]
1 | CC[C@H](C)[C@H](NC(=O)[C@H](CCCNC(=N)N)NC(=O)[C@H](CCC(N)=O)NC(=O)[C@@H](NC(=O)[C@@H](NC(=O)[C@H](CCCNC(=N)N)NC(=O)[C@H](CCCCN)NC(=O)CCCc1ccccc1)[C@@H](C)CC)C(C)C)C(=O)N[C@@H](CCCCN)C(=O)N[C@@H](CC(=O)O)C(=O)N[C@@H](Cc1ccccc1)C(=O)N[C@@H](CC(C)C)C(=O)N[C@@H](CCCNC(=N)N)C(N)=O [XVIII, 4-Phenylbutanoic acid-KR12-NH2] ({Butanoyl(4-Ph)}-KRIVQRIKDFLR-NH2) | 128 ^a µg/mL | 4 (≈ 2.33 µM) | 32 (≈ 18.6 µM) | 32 (≈ 18.6 µM) | 32 (≈ 18.6 µM) | 8 (≈ 4.66 µM) | 16 (≈ 9.32 µM) | 8 (≈ 4.66 µM) | 64 (≈ 37.3 µM) | 32 (≈ 18.6 µM) | 16 (≈ 9.32 µM) |  | 
2 | CC[C@H](C)[C@H](NC(=O)[C@H](CCCNC(=N)N)NC(=O)[C@H](CCC(N)=O)NC(=O)[C@@H](NC(=O)[C@@H](NC(=O)[C@H](CCCNC(=N)N)NC(=O)[C@H](CCCCN)NC(=O)C#Cc1ccccc1)[C@@H](C)CC)C(C)C)C(=O)N[C@@H](CCCCN)C(=O)N[C@@H](CC(=O)O)C(=O)N[C@@H](Cc1ccccc1)C(=O)N[C@@H](CC(C)C)C(=O)N[C@@H](CCCNC(=N)N)C(N)=O [XX, Phenylpropiolic acid-KR12-NH2] (X2-KRIVQRIKDFLR-NH2) |  | 32 (≈ 18.8 µM) | 128 (≈ 75.3 µM) | 8 (≈ 4.71 µM) | 32 (≈ 18.8 µM) | 16 (≈ 9.42 µM) | 32 (≈ 18.8 µM) | 4 (≈ 2.35 µM) | 64 (≈ 37.7 µM) | 16 (≈ 9.42 µM) | 32 (≈ 18.8 µM) | 256 | 
3 | CC[C@H](C)[C@H](NC(=O)[C@H](CCCNC(=N)N)NC(=O)[C@H](CCC(N)=O)NC(=O)[C@@H](NC(=O)[C@@H](NC(=O)[C@H](CCCNC(=N)N)NC(=O)[C@H](CCCCN)NC(=O)c1ccc(-c2ccccc2)cc1)[C@@H](C)CC)C(C)C)C(=O)N[C@@H](CCCCN)C(=O)N[C@@H](CC(=O)O)C(=O)N[C@@H](Cc1ccccc1)C(=O)N[C@@H](CC(C)C)C(=O)N[C@@H](CCCNC(=N)N)C(N)=O [XXI, 4-Phenylbenzoic acid-KR12-NH2] ({Benzoyl(4-Ph)}-KRIVQRIKDFLR-NH2) |  | 8 (≈ 4.57 µM) | 8 (≈ 4.57 µM) | 2 (≈ 1.14 µM) | 4 (≈ 2.28 µM) | 4 (≈ 2.28 µM) | 4 (≈ 2.28 µM) | 2 (≈ 1.14 µM) | 16 (≈ 9.14 µM) | 4 (≈ 2.28 µM) | 8 (≈ 4.57 µM) | 32 | 
4 | CC[C@H](C)[C@H](NC(=O)[C@H](CCCNC(=N)N)NC(=O)[C@H](CCC(N)=O)NC(=O)[C@@H](NC(=O)[C@@H](NC(=O)[C@H](CCCNC(=N)N)NC(=O)[C@H](CCCCN)NC(=O)CC[C@@H](C)[C@H]1CC[C@H]2[C@@H]3CC[C@@H]4C[C@H](O)CC[C@]4(C)[C@H]3C[C@H](O)[C@]12C)[C@@H](C)CC)C(C)C)C(=O)N[C@@H](CCCCN)C(=O)N[C@@H](CC(=O)O)C(=O)N[C@@H](Cc1ccccc1)C(=O)N[C@@H](CC(C)C)C(=O)N[C@@H](CCCNC(=N)N)C(N)=O [XXII, Deoxycholic acid-KR12-NH2] (Deoxycholoyl-KRIVQRIKDFLR-NH2) | 8 µg/mL |  | 32 (≈ 16.4 µM) | 4 (≈ 2.06 µM) | 8 (≈ 4.11 µM) | 8 (≈ 4.11 µM) | 256 (≈ 132 µM) | 2 (≈ 1.03 µM) | 128 (≈ 65.8 µM) | 128 (≈ 65.8 µM) | 64 (≈ 32.9 µM) |  | 8 (≈ 4.11 µM)
